We go through one substance from US20230355753A1, “BISPECIFIC ANTIBODY AGAINST CD3 AND CD20 IN COMBINATION THERAPY FOR TREATING DIFFUSE LARGE B-CELL LYMPHOMA” (GENMAB A/S, priority 2020, published 2023).

One series concerns R/R B-NHL. In words: Ongoing clinical trial of epcoritamab monotherapy (NCT03625037). Format: in vivo. From the text: Epcoritamab as monotherapy is currently in a clinical trial for the treatment of relapsed/refractory (R/R) (ClinicalTrials.gov Identifier: NCT03625037).
The subject of series [1] is primary DLBCL and follicular lymphoma patient biopsies. Particulars: cited from earlier work.
Series [2] concerns R/R DLBCL eligible for ASCT. Format: in vivo. Particulars: in combination with R-DHAX/C, preliminary. The procedure: The trial is conducted in 2 parts: dose escalation (Part 1) and expansion (Part 2). Subjects participate in only one part. Both parts consist of a screening period, a treatment period, a safety follow-up period, and a survival follow-up period.
Epcoritamab is initially be administered in combination with R-DHAX/C in a 3-subject cohort. DLTs are evaluated during the first 28 days.
Dexamethasone (40 mg) is administered intravenously or orally on days 1-4 of a cycle once every 3 weeks (Q3W) for cycles 1-3. Cytarabine (2 g/m^2) is administered intravenously on day 1 (usually over 3 hours), repeated after 12 hours (may result in a second dose on day 2 depending on timing of first dose), once every 3 weeks (Q3W) for cycles 1-3. […] Carboplatin (for DHAC) (AUC=5 mg/ml/min; Calvert's formula) is administered intravenously on day 1 once every 3 weeks (Q3W) for cycles 1-3.
CRS is graded according to the ASTCT grading for CRS (Tables 6 and 7), and for treatment of CRS, subjects should receive supportive care. […]

Series [3] concerns CD20-expressing Raji-luc tumor cells. Particulars: even in the presence of an excess of rituximab variant with inert Fc domain (IgG1-RTX-FEAR); cited from earlier work.

Read-outs that look alike come from different tables or passages of the source.

For the substance “epcoritamab: IgG1 bispecific CD3xCD20 antibody, heavy/light chain pairs SEQ ID NOs: 24/25 and 26/27; CAS 2134641-34-0”, the tolerated dose entry with R/R B-NHL (human, in vivo) is “at least 48 mg”. In addition, the dose-limiting toxicities entry in the series on R/R B-NHL (monotherapy, R/R B-NHL patients, preliminary data) is “no dose-limiting toxicities reported”. Besides, in series [1] (biopsies taken a certain amount of time after administration of an anti-CD20 antibody), the T-cell-mediated cytotoxicity result was “induced T-cell-mediated cytotoxicity”. The tumor cell kill entry in series [1] (biopsy taken 2 weeks after administering the anti-CD20 antibody) is reported as “up to 40%”. Further, the responders observed in series [2] (escalation phase, as of Sep. 8, 2021, total of 22 patients dosed, non-validated) is given as 4; in series [2] (expansion phase 48 mg, as of Sep. 8, 2021, response data not completely entered), 0. Moreover, the “tumor growth in the xenograft model” value in series [3] is “effectively reduce tumor growth”.
